What was measured:
[1] = system: IL-1β; experiment: PBMC assay, IL-1β release after LPS stimulation; type: cell-based; conditions: human PBMCs, 30 min preincubation, 100 ng/ml LPS for 6 hrs, supernatant, MSD technology, read-out: IL1β AC50
Experimental: The activity of a compound according to the present invention can be assessed by in vitro methods.
(§1) Peripheral venous blood was collected from healthy individuals and human peripheral blood mononuclear cells (PBMCs) were isolated from blood by Ficoll-Histopaque (Sigma-Aldrich, A0561) density gradient centrifugation. After isolation, PBMCs were stored in liquid nitrogen for later use. Upon thawing, PBMC cell viability was determined in growth medium (RPMI media supplemented with 10% fetal bovine serum, 1% Pen-Strep and 1% L-glutamine). Compounds were spotted in a 1:3 serial dilution in DMSO and diluted to the final concentration in 30 μl medium in 96 well plates (Falcon, 353072). PBMCs were added at a density of 7.5×10^4 cells per well and incubated for 30 min in a 5% CO2 incubator at 37 ° C. LPS stimulation was performed by addition of 100 ng/ml LPS (final concentration, Invivogen, tlrl-smlps) for 6 hrs followed by collection of cellular supernatant and the analysis of IL-1β[…] and TNF cytokines levels (uμ) via MSD technology according to manufacturers' guidelines (MSD, K151A0H).
(§2) IC50 and AC50 values (for IL-1β) and EC50 and AC50 values (TNF) were obtained on compounds of the invention/examples, and the AC50 values are depicted in the following table: […]

[2] = system: TNF; experiment: PBMC assay, TNF release after LPS stimulation; type: cell-based; conditions: human PBMCs, 30 min preincubation, 100 ng/ml LPS for 6 hrs, supernatant, MSD technology
Experimental: as §1, §2

CC(C)c1nn(CC(=O)Nc2ccc3nncn3c2)c(=O)cc1N1CCC2(C1)CC2(F)F (centres unmarked) [Compound 58]
AC50 [1]: 0.89 µM
AC50 [2]: > 20 µM

CCC1CCCN1c1cc(=O)n(CC(=O)Nc2ccc3nncn3c2)nc1C(C)C (centres unmarked) [Compound 19]
AC50 [1]: 2.61 µM
AC50 [2]: > 10 µM

CC(C)c1nn(CC(=O)Nc2ccc3nncn3c2)c(=O)cc1N1CC2CC2C1 (centres unmarked) [Compound 14]
AC50 [1]: 0.09 µM
AC50 [2]: > 10 µM

CO[C@H]1CCN(c2cc(=O)n(CC(=O)Nc3ccc4nncn4c3)nc2C(C)C)C1 [Compound 16]
AC50 [1]: 11.4 µM
AC50 [2]: > 10 µM

COC[C@H]1CCCN1c1cc(=O)n(CC(=O)Nc2ccc3nncn3c2)nc1C(C)C [Compound 15]
AC50 [1]: 16.6 µM
AC50 [2]: > 10 µM

CC(C)c1nn(CC(=O)Nc2ccc3nncn3c2)c(=O)cc1N1CCCC(F)C1 (centres unmarked) [Compound 60]
AC50 [1]: 1.59 µM
AC50 [2]: 19.1 µM

CC(C)c1nn(CC(=O)Nc2ccc3nncn3c2)c(=O)cc1N1CC2(C1)CC(F)(F)C2 [Compound 53]
AC50 [1]: > 20 µM
AC50 [2]: > 20 µM

CC(C)c1nn(CC(=O)Nc2ccc3nncn3c2)c(=O)cc1N1CC[C@@H](F)C1 [Compound 10]
AC50 [1]: 0.53 µM
AC50 [2]: > 10 µM

CC(C)c1nn(CC(=O)Nc2ccc3nncn3c2)c(=O)cc1NCC1CC1 [Compound 29, 2-[4-(cyclopropylmethylamino)-3-isopropyl-6-oxo-pyridazin-1-yl]-N-([1,2,4]triazolo[4,3-a]pyridin-6-yl)acetamide]
AC50 [1]: 1.53 µM
AC50 [2]: > 10 µM

CC(C)c1nn(CC(=O)Nc2ccc3nncn3c2)c(=O)cc1N1CCC2(CC1)CC2(F)F [Compound 61]
AC50 [1]: 19.5 µM
AC50 [2]: > 20 µM

CC(C)c1nn(CC(=O)Nc2ccc3nncn3c2)c(=O)cc1Nc1cnc(C2CC2)nc1 [Compound 39]
AC50 [1]: > 6.67 µM
AC50 [2]: > 6.67 µM

CC(C)c1nn(CC(=O)Nc2ccc3nncn3c2)c(=O)cc1N1CCC2(CCCO2)C1 (centres unmarked) [Compound 52]
AC50 [1]: > 20 µM
AC50 [2]: > 20 µM

CC(C)c1nn(CC(=O)Nc2ccc3nncn3c2)c(=O)cc1N1CC[C@H](C)C1 [Compound 51]
AC50 [1]: 0.42 µM
AC50 [2]: > 20 µM

CC(C)c1nn(CC(=O)Nc2ccc3nncn3c2)c(=O)cc1Nc1cnn(CC23CC(CO2)C3)c1 [Compound 2]
AC50 [1]: > 15 µM
AC50 [2]: > 10 µM

CC(C)c1nn(CC(=O)Nc2ccc3nncn3c2)c(=O)cc1N1CCC(C)(O)CC1 [Compound 36]
AC50 [1]: > 20 µM
AC50 [2]: > 20 µM

CC(C)c1nn(CC(=O)Nc2ccc3nncn3c2)c(=O)cc1N(C)C1CC1 [Compound 67]
AC50 [1]: 10.2 µM
AC50 [2]: > 20 µM

CC(C)c1nn(CC(=O)Nc2ccc3nncn3c2)c(=O)cc1Nc1cccc2ocnc12 [Compound 42]
AC50 [1]: > 20 µM
AC50 [2]: > 20 µM

CC(C)CN(C)c1cc(=O)n(CC(=O)Nc2ccc3nncn3c2)nc1C(C)C [Compound 47]
AC50 [1]: 13.8 µM
AC50 [2]: > 20 µM

CC(C)c1nn(CC(=O)Nc2ccc3nncn3c2)c(=O)cc1N1CC[C@@H]2C[C@@H]2C1 [Compound 33]
AC50 [1]: 0.5 µM
AC50 [2]: > 20 µM

CC(C)c1nn(CC(=O)Nc2ccc3nncn3c2)c(=O)cc1Nc1ccccc1 [Compound 1, 2-(4-anilino-3-isopropyl-6-oxo-pyridazin-1-yl)-N-([1,2,4]triazolo[4,3-a]pyridin-6-yl)acetamide]
AC50 [1]: > 15 µM
AC50 [2]: > 10 µM

CC(C)c1nn(CC(=O)Nc2ccc3nncn3c2)c(=O)cc1N1CCC(F)(F)C1 [Compound 13]
AC50 [1]: 0.66 µM
AC50 [2]: > 10 µM

CC(C)c1nn(CC(=O)Nc2ccc3nncn3c2)c(=O)cc1N1CC(C)(O)C1 [Compound 26]
AC50 [1]: > 15 µM
AC50 [2]: > 10 µM

CC(C)c1nn(CC(=O)Nc2ccc3nncn3c2)c(=O)cc1N1CCC(Oc2ccccn2)C1 (centres unmarked) [Compound 59]
AC50 [1]: 9.92 µM
AC50 [2]: 16.1 µM

CC(C)c1nn(CC(=O)Nc2ccc3nncn3c2)c(=O)cc1N1CCC(c2ccncc2)C1 (centres unmarked) [Compound 65]
AC50 [1]: > 20 µM
AC50 [2]: > 20 µM

CC(C)c1nn(CC(=O)Nc2ccc3nncn3c2)c(=O)cc1N1CCC[C@H](C)C1 [Compound 55]
AC50 [1]: 0.51 µM
AC50 [2]: > 20 µM

CC(C)c1nn(CC(=O)Nc2ccc3nncn3c2)c(=O)cc1Nc1cccc(C2CC2)n1 [Compound 38, N-([1,2,4]triazolo[4,3-a]pyridin-6-yl)-2-(4-((6-cyclopropylpyridin-2-yl)amino)-3-isopropyl-6-oxopyridazin-1(6H)-yl)acetamide]
AC50 [1]: > 4 µM
AC50 [2]: > 4 µM

CC(C)c1nn(CC(=O)Nc2ccc3nncn3c2)c(=O)cc1NCC(F)c1ccccc1 (centres unmarked) [Compound 37]
AC50 [1]: > 20 µM
AC50 [2]: > 20 µM

CC(C)c1nn(CC(=O)Nc2ccc3nncn3c2)c(=O)cc1N1CC2(CCC2)C1 [Compound 49]
AC50 [1]: 0.76 µM
AC50 [2]: 8.29 µM

CC(C)c1nn(CC(=O)Nc2ccc3nncn3c2)c(=O)cc1N1CC(CC(F)F)C1 [Compound 35]
AC50 [1]: 4.36 µM
AC50 [2]: > 20 µM

CC(C)c1nn(CC(=O)Nc2ccc3nncn3c2)c(=O)cc1NC1CCCC1 [Compound 7]
AC50 [1]: 4.36 µM
AC50 [2]: > 10 µM

CC(C)c1nn(CC(=O)Nc2ccc3nncn3c2)c(=O)cc1N1CCC12CCOCC2 [Compound 25]
AC50 [1]: > 15 µM
AC50 [2]: > 10 µM

CC(C)c1nn(CC(=O)Nc2ccc3nncn3c2)c(=O)cc1N1CCN(C)CC1 [Compound 48]
AC50 [1]: > 20 µM
AC50 [2]: > 20 µM

CC(C)c1nn(CC(=O)Nc2ccc3nncn3c2)c(=O)cc1N1CCCCC1 [Compound 45, N-([1,2,4]triazolo[4,3-a]pyridin-6-yl)-2-(3-isopropyl-6-oxo-4-(piperidin-1-yl)pyridazin-1(6H)-yl)acetamide]
AC50 [1]: 1.23 µM
AC50 [2]: > 20 µM

CC(C)CNc1cc(=O)n(CC(=O)Nc2ccc3nncn3c2)nc1C(C)C [Compound 46]
AC50 [1]: 1.36 µM
AC50 [2]: > 20 µM

CC(C)c1nn(CC(=O)Nc2ccc3nncn3c2)c(=O)cc1Nc1ccc2oncc2c1 [Compound 41, N-([1,2,4]triazolo[4,3-a]pyridin-6-yl)-2-(4-(benzo[d]isoxazol-5-ylamino)-3-isopropyl-6-oxopyridazin-1(6H)-yl)acetamide]
AC50 [1]: > 20 µM
AC50 [2]: > 20 µM

CC(C)c1nn(CC(=O)Nc2ccc3nncn3c2)c(=O)cc1N1CCCC1C(C)C (centres unmarked) [Compound 20]
AC50 [1]: 10.8 µM
AC50 [2]: > 10 µM

CC(C)c1nn(CC(=O)Nc2ccc3nncn3c2)c(=O)cc1N1CCC[C@@H]1C [Compound 18]
AC50 [1]: > 15 µM
AC50 [2]: > 10 µM

CC(C)c1nn(CC(=O)Nc2ccc3nncn3c2)c(=O)cc1N1CC[C@H](F)C1 [Compound 9]
AC50 [1]: 2.49 µM
AC50 [2]: > 10 µM

CC(C)c1nn(CC(=O)Nc2ccc3nncn3c2)c(=O)cc1N1Cc2cc(F)cnc2C1 [Compound 34]
AC50 [1]: > 20 µM
AC50 [2]: > 20 µM

CC(C)c1nn(CC(=O)Nc2ccc3nncn3c2)c(=O)cc1N1CC[C@H](N(C)C)C1 [Compound 28]
AC50 [1]: > 15 µM
AC50 [2]: > 10 µM

COC1CN(c2cc(=O)n(CC(=O)Nc3ccc4nncn4c3)nc2C(C)C)C1 [Compound 24]
AC50 [1]: 9.87 µM
AC50 [2]: > 10 µM

CC(C)c1nn(CC(=O)Nc2ccc3nncn3c2)c(=O)cc1N1CCOCC1 [Compound 6]
AC50 [1]: > 15 µM
AC50 [2]: > 10 µM

CC(C)c1nn(CC(=O)Nc2ccc3nncn3c2)c(=O)cc1N1CC(C)(F)C1 [Compound 32]
AC50 [1]: 1.37 µM
AC50 [2]: > 20 µM

CC(C)c1nn(CC(=O)Nc2ccc3nncn3c2)c(=O)cc1N1CCC(F)(F)CC1 [Compound 12]
AC50 [1]: > 15 µM
AC50 [2]: > 10 µM

CC(C)c1nn(CC(=O)Nc2ccc3nncn3c2)c(=O)cc1NC1CC(C)(C)C1 [Compound 31, N-([1,2,4]triazolo[4,3-a]pyridin-6-yl)-2-(4-((3,3-dimethylcyclobutyl)amino)-3-isopropyl-6-oxopyridazin-1(6H)-yl)acetamide]
AC50 [1]: > 20 µM
AC50 [2]: > 20 µM

CC(C)c1nn(CC(=O)Nc2ccc3nncn3c2)c(=O)cc1N1CC2(COC2)C1 [Compound 50]
AC50 [1]: > 20 µM
AC50 [2]: > 20 µM

CC1CC(C)CN(c2cc(=O)n(CC(=O)Nc3ccc4nncn4c3)nc2C(C)C)C1 (centres unmarked) [Compound 56]
AC50 [1]: 0.64 µM
AC50 [2]: 16 µM

CC(C)c1nn(CC(=O)Nc2ccc3nncn3c2)c(=O)cc1N(C)C [Compound 30, 2-[4-(dimethylamino)-3-isopropyl-6-oxo-pyridazin-1-yl]-N-([1,2,4]triazolo[4,3-a]pyridin-6-yl)acetamide]
AC50 [1]: > 15 µM
AC50 [2]: > 10 µM

CC(C)c1nn(CC(=O)Nc2ccc3nncn3c2)c(=O)cc1N1CCCC1 [Compound 5, 2-(3-isopropyl-6-oxo-4-pyrrolidin-1-yl-pyridazin-1-yl)-N-([1,2,4]triazolo[4,3-a]pyridin-6-yl)acetamide]
AC50 [1]: 0.33 µM
AC50 [2]: > 10 µM

CC(C)c1nn(CC(=O)Nc2ccc3nncn3c2)c(=O)cc1N1C2CCC1CC2 [Compound 21]
AC50 [1]: 1.02 µM
AC50 [2]: > 10 µM

CC(C)c1nn(CC(=O)Nc2ccc3nncn3c2)c(=O)cc1Nc1cc([C@H]2C[C@H]2C)on1 [Compound 43]
AC50 [1]: > 20 µM
AC50 [2]: > 20 µM

CC(C)c1nn(CC(=O)Nc2ccc3nncn3c2)c(=O)cc1Nc1cnn(CC23CC(CO2)C3)c1C(F)(F)F [Compound 3]
AC50 [1]: > 15 µM
AC50 [2]: > 10 µM
